Where two headings read alike, the source gives them in different places.
Tests used:
human H3 receptor = molecular target: T1, human H3 receptor (Homo sapiens, UniProt Q9Y5N1); test: Human H3 radioligand binding ([3H]-N-alpha-methylhistamine, SPA)
T1 construct: expressed in transfected cells
Outline: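 Compounds (0.01 nM-30 μM) competed with approximately 1 nM [3H]-N-alpha-methylhistamine for human H3 receptor in membranes of stably transfected CHO cells, 10 μg protein per well, in Tris-HCl pH 7.4/MgCl2/BSA buffer for 4 h at room temperature. Bound radioligand measured by scintillation proximity; 10 μM clobenpropit gave non-specific binding.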

[1] = molecular target: T2, rat histamine H3 receptor (Rattus norvegicus, UniProt Q9QYN8); test: Rat H3 radioligand binding ([3H]-N-alpha-methylhistamine, SPA)
T2 construct: encoding the entire 445-amino-acid rat histamine H3 receptor; expressed in transfected cells; membrane preparation
Outline: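 SPA-bead binding assay using [3H]-N-alpha-methylhistamine (approximately 1 nM final) with test compounds from 0.01 nM to 30 μM. Rat H3 receptor membranes came from stably transfected CHO-A3 cells; incubation ran 4 h at room temperature, in the dark, in Tris pH 7.4 buffer with MgCl2 and BSA. Clobenpropit (10 μM) gave non-specific binding.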

[2] = Table C, human H3 binding, read-out: Human H3 Ki
[3] = Table C, rat H3 binding, read-out: Rat H3 Ki
[4] = Human H3 binding, Table B, Examples 136-362, read-out: hum H3 binding Ki
[5] = Rat H3 binding, Table B, Examples 136-362, read-out: rat H3 binding Ki
[6] = human H3 binding, Table D, read-out: Human H3 Ki
[7] = rat H3 binding, Table D, read-out: Rat H3 Ki
[8] = Table A, human H3 binding, read-out: Human Ki
[9] = Table A, rat H3 binding, read-out: Rat Ki

T2 sequence (Q9QYN8 whole entry): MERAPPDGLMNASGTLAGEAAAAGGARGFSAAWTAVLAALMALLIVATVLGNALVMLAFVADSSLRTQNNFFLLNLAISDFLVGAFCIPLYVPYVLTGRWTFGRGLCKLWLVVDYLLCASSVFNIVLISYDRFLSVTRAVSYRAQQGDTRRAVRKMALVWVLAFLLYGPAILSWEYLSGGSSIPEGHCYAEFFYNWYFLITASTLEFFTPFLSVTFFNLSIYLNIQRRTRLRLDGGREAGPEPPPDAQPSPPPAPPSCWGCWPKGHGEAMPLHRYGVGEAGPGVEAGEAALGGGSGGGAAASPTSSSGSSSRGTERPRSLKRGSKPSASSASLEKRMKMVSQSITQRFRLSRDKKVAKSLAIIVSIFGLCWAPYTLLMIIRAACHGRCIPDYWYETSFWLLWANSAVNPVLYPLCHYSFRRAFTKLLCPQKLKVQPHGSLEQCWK
T1 sequence (Q9Y5N1 whole entry): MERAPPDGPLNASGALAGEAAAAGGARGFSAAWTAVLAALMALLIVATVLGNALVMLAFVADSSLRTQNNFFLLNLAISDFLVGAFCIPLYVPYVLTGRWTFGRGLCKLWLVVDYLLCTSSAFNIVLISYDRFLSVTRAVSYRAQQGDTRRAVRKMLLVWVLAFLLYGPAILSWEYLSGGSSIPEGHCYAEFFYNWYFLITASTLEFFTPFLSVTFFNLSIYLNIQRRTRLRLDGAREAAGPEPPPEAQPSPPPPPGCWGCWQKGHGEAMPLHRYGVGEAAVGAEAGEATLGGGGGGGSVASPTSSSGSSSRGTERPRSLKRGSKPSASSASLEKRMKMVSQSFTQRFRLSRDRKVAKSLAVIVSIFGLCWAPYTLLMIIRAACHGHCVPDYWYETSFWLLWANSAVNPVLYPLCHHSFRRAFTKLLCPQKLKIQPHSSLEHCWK

melting point | Ki (human H3 receptor; [6]) | Ki [1, 7] | Structure (SMILES) | also measured
252 to 254 °C |  |  | c1cc2c(cc1OC1CCOCC1)CCC1(CCN(C3CCC3)CC1)O2 [Example 433] | Ki (human H3 receptor; [2]): < 200 nM; Ki [1, 3]: < 200 nM
168.5 to 169.9 °C |  |  | Cc1cc(-c2ccc3c(c2)COC2(CCN(C4CCC4)CC2)O3)ccc1C(=O)NCCO [Example 231] | Ki (human H3 receptor; [4]): < 200 nM; Ki [1, 5]: < 200 nM
76.4 to 78.4 °C | < 200 nM | < 200 nM | Cc1nnc(C2CC=C(c3ccc4c(c3)COC3(CCN(C5CCC5)CC3)O4)CC2)o1 (stereo not drawn) [Example 689] | 
240 to 242 °C |  |  | CS(=O)(=O)N1CCN(c2ccc3c(c2)CCC2(CCN(C4CCC4)CC2)O3)CC1 [Example 375] | Ki (human H3 receptor; [2]): < 200 nM; Ki [1, 3]: < 200 nM
143 to 145 °C |  |  | CS(=O)(=O)c1ccccc1C(=O)Nc1ccc2c(c1)COC1(CCN(C3CCC3)CC1)O2 [Example 216] | Ki (human H3 receptor; [4]): 200 to 1000 nM; Ki [1, 5]: < 200 nM
205 to 206.5 °C |  |  | CNC(=O)NCc1ccc(-c2ccc3c(c2)COC2(CCN(C4CCC4)CC2)O3)cc1 [Example 181] | Ki (human H3 receptor; [4]): < 200 nM; Ki [1, 5]: < 200 nM
61 to 63 °C | < 200 nM | < 200 nM | COc1nc(C)ccc1-c1ccc2c(c1)COC1(CCN(C3CCC3)CC1)O2 [Example 746] | 
212 to 214 °C | < 200 nM | < 200 nM | COc1cc(-c2ccc3c(c2)COC2(CCN(C4CCC4)CC2)O3)ccc1C(N)=O [Example 742] | 
156 to 158 °C | < 200 nM | < 200 nM | Cc1cc(C(N)=O)cc(C)c1-c1ccc2c(c1)COC1(CCN(C3CCC3)CC1)O2 [Example 751] | 
246 to 249 °C |  |  | Cc1c(-c2ccc(=O)[nH]c2)ccc2c1COC1(CCN(C3CCC3)CC1)O2 [Example 552] | Ki (human H3 receptor; read-out: Human H3 Ki): < 200 nM; Ki ([1]; read-out: Rat H3 kI): < 200 nM
173 to 175 °C | < 200 nM | 200 to 1000 nM | COc1cc(-c2ccc3c(c2)COC2(CCN(C4CCC4)CC2)O3)ccc1C(=O)O [Example 624] | 
180 to 181 °C |  |  | CN1CCN(c2ccc3c(c2)COC2(CCN(C4CCC4)CC2)O3)C1=O [Example 82] | Ki (human H3 receptor; [8]): < 200 nM; Ki [1, 9]: < 200 nM
232 to 234 °C |  |  | COCCN(C)C(=O)c1ccc(-c2ccc3c(c2)COC2(CCN(C4CCC4)CC2)O3)cc1 [Example 306] | Ki (human H3 receptor; [4]): < 200 nM; Ki [1, 5]: < 200 nM
133 to 135 °C |  |  | Cc1cn(-c2ccc3c(c2)COC2(CCN(C4CCC4)CC2)O3)cc1CO [Example 87] | Ki (human H3 receptor; [8]): < 200 nM; Ki [1, 9]: < 200 nM
160 to 162 °C |  |  | Nc1ccc2c(c1)COC1(CCN(C3CCC3)CC1)O2 [Example 350] | Ki (human H3 receptor; [4]): 200 to 1000 nM; Ki [1, 5]: 200 to 1000 nM
159 to 161 °C | < 200 nM | < 200 nM | O=C(NC[C@@H]1CCCO1)c1ccc(-c2ccc3c(c2)COC2(CCN(C4CCC4)CC2)O3)cc1Cl [Example 585] | 
151 to 153 °C | > 1000 nM | > 1000 nM | COc1ccc(-c2ccc3c(c2)COC2(CCN(CC4CCOCC4)CC2)O3)cn1 [Example 716] | 
232 to 234 °C |  |  | COc1ccc(Oc2ccc3c(c2)CCC2(CCN(C4CCC4)CC2)O3)cn1 [Example 481] | Ki (human H3 receptor; read-out: Human H3 Ki): < 200 nM; Ki ([1]; read-out: Rat H3 kI): < 200 nM
150 to 153 °C |  |  | OC1CCC(c2ccc3c(c2)COC2(CCN(C4CCC4)CC2)O3)CC1 (stereo not drawn) [Example 498] | Ki (human H3 receptor; read-out: Human H3 Ki): < 200 nM; Ki ([1]; read-out: Rat H3 kI): < 200 nM
237 to 239 °C |  |  | O=C(OCc1ccccc1)N1CC=C(c2ccc3c(c2)CCC2(CCN(C4CCC4)CC2)O3)CC1 [Example 447] | Ki (human H3 receptor; read-out: Human H3 Ki): < 200 nM; Ki ([1]; read-out: Rat H3 kI): < 200 nM

melting point | Ki (human H3 receptor; [6]) | Ki [1, 7] | Structure (SMILES) | also measured
149 to 153 °C |  |  | CNC(=O)c1cn(-c2ccc3c(c2)COC2(CCN(C4CCC4)CC2)O3)cc1C [Example 86] | Ki (human H3 receptor; [8]): < 200 nM; Ki [1, 9]: < 200 nM
180 to 181 °C |  |  | O=C(C1CC(O)(c2ccc3c(c2)CCC2(CCN(C4CCC4)CC2)O3)C1)N1CCCC1 (stereo not drawn) [Example 569] | Ki (human H3 receptor; read-out: Human H3 Ki): < 200 nM; Ki ([1]; read-out: Rat H3 kI): < 200 nM
168 to 169 °C |  |  | C1=C(c2ccc3c(c2)COC2(CCN(C4CCC4)CC2)O3)CCOC1 [Example 478] | Ki (human H3 receptor; read-out: Human H3 Ki): < 200 nM; Ki ([1]; read-out: Rat H3 kI): < 200 nM
92.3 to 94.2 °C | < 200 nM | < 200 nM | COCC1CCN(c2ccc3c(c2)COC2(CCN(C4CCC4)CC2)O3)CC1 [Example 632] | 
55.4 to 57.3 °C | < 200 nM | < 200 nM | COCCNC(=O)C1CCCN(c2ccc3c(c2)COC2(CCN(C4CCC4)CC2)O3)C1 (stereo not drawn) [Example 613] | 
157 to 159 °C | < 200 nM | < 200 nM | CCS(=O)(=O)c1ccc(-c2ccc3c(c2)COC2(CCN(C4CCC4)CC2)O3)cc1Cl [Example 625] | 
117 to 118 °C |  |  | c1cc2c(cc1OCC1CCSCC1)CCC1(CCN(C3CCC3)CC1)O2 [Example 499] | Ki (human H3 receptor; read-out: Human H3 Ki): < 200 nM; Ki ([1]; read-out: Rat H3 kI): < 200 nM
190 to 193 °C | < 200 nM | < 200 nM | CN(C)C(=O)c1ccc(-c2ccc3c(c2)COC2(CCN(C4CCC4)CC2)O3)nc1 [Example 638] | 
267 to 269 °C |  |  | CN(C)C(=O)c1ccc(Oc2ccc3c(c2)CCC2(CCN(C4CCC4)CC2)O3)nc1 [Example 407] | Ki (human H3 receptor; [2]): < 200 nM; Ki [1, 3]: 200 to 1000 nM
113 to 116.1 °C |  |  | CCN(CC)C(=O)N1CCN(c2ccc3c(c2)COC2(CCN(C4CCC4)CC2)O3)CC1 [Example 351] | Ki (human H3 receptor; [4]): < 200 nM; Ki [1, 5]: < 200 nM
135.9 to 137.2 °C | < 200 nM | < 200 nM | Cc1cc(C2CCN(c3ccc4c(c3)COC3(CCN(C5CCC5)CC3)O4)CC2)on1 [Example 665] | 
119 to 121 °C | < 200 nM | < 200 nM | Cc1cc(=O)n(C(F)F)cc1-c1ccc2c(c1)COC1(CCN(C3CCC3)CC1)O2 [Example 764] | 
129 to 130 °C | < 200 nM | < 200 nM | O=c1ccc(-c2ccc3c(c2)COC2(CCN(C4CCC4)CC2)O3)cn1CCO [Example 720] | 
170 to 172 °C |  |  | O=C(Cc1ccncc1)Nc1ccc2c(c1)COC1(CCN(C3CCC3)CC1)O2 [Example 331] | Ki (human H3 receptor; [4]): < 200 nM; Ki [1, 5]: < 200 nM
191 to 193 °C | < 200 nM | < 200 nM | Cc1[nH]c(=O)ccc1-c1ccc2c(c1)COC1(CCN(C3CCC3)CC1)O2 [Example 736] | 
229 to 231 °C |  |  | Clc1ccc(N2CCN(c3ccc4c(c3)CCC3(CCN(C5CCC5)CC3)O4)CC2)nn1 [Example 389] | Ki (human H3 receptor; [2]): < 200 nM; Ki [1, 3]: < 200 nM
153 to 155 °C |  |  | O=C(Nc1ccc2c(c1)CCC1(CCN(C3CCC3)CC1)O2)c1cc(-c2ccccc2)ncn1 [Example 249] | Ki (human H3 receptor; [4]): < 200 nM; Ki [1, 5]: < 200 nM
178 to 180 °C | < 200 nM | < 200 nM | Cc1c(-c2ccc3c(c2)COC2(CCN(C4CCC4)CC2)O3)c[nH]c(=O)c1C [Example 799] | 
105 to 107 °C | < 200 nM | < 200 nM | COCCN(C)C(=O)c1ccc(-c2ccc3c(c2)COC2(CCN(C4CCC4)CC2)O3)cc1Cl [Example 577] | 
50 to 53 °C |  |  | CN(C)C(=O)c1ccccc1Nc1ccc2c(c1)COC1(CCN(C3CCC3)CC1)O2 [Example 166] | Ki (human H3 receptor; [4]): < 200 nM; Ki [1, 5]: < 200 nM
